{
  "source": "paper PMC8662641",
  "about": "“Site-Specific Labeling of Endogenous Proteins Using CoLDR Chemistry” (Journal of the American Chemical Society, 2021)",
  "target": "BTK kinase domain (Homo sapiens, UniProt Q06187)",
  "sequence (Q06187 402-655 limits assumed)": "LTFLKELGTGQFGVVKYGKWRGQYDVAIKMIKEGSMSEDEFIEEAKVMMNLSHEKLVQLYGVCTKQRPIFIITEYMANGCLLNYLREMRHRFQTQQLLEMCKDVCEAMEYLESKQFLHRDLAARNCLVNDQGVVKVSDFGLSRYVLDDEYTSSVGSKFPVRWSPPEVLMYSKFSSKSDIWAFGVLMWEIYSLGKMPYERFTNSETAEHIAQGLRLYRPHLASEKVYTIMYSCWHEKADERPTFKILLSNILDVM",
  "assay": "MS/MS site-of-labeling analysis of BTK tryptic peptides",
  "type": "binding",
  "set-up": "BTK kinase domain was expressed and purified as previously reported; made in house",
  "procedure": "100 μl of 5 μM Recombinant BTK kinase domain was incubated in 20 mM Tris with 50 μM of 1b or DMSO. The compounds were then removed by methanol-chloroform (400 μL MeOH+100 μL CHCl3+300 μL H2O) precipitation of the protein. The dry pellet was dissolved in 50 μl of 50 mM Tris pH 8 + 5% SDS and heated to 95 °C for 6 min. The concentration of the protein was estimated using BCA assay (using BSA as the standard). 2 μg each sample were diluted to 15 μl with Tris 50 mM pH 8 + 5% SDS, reduced with DTT (0.75 μl of 0.1 M in 5% SDS/Tris 50 mM pH 8, 45 min 65 °C), cooled to room temperature, then alkylated with 0.75 μl of 0.2 M iodoacetamide in water (30 min room temperature in the dark). The protein was then isolated and trypsinized on s-traps (Protifi) according to the manufacturer's instructions. Triplicates were prepared for each […]\nULC/MS grade solvents were used for all chromatographic steps. Each sample was loaded using split-less nano-Ultra Performance Liquid Chromatography (10 kpsi nanoAcquity; Waters, Milford, MA, USA). The mobile phase was: A) H2O + 0.1% formic acid and B) acetonitrile + 0.1% formic acid. Desalting of the samples was performed online using a reversed-phase Symmetry C18 trapping column (180 µm internal diameter, 20 mm length, 5 µm particle size; Waters). The peptides were then separated using a T3 HSS nano-column (75 µm internal diameter, 250 mm length, 1.8 µm particle size; Waters) at 0.35 µL/min. Peptides were eluted from the column into the mass spectrometer using the following gradient: 4% to 30%B in 155 min, 35% to 90%B in 5 min, maintained at 90% for 5 min and then back to initial conditions.\nThe nanoUPLC was coupled online through a nanoESI emitter (10 μm tip; New Objective; Woburn, MA, USA) to a quadrupole orbitrap mass spectrometer (Q Exactive HFX, Thermo Scientific) using a FlexIon nanospray apparatus (Proxeon).\nData was acquired in data dependent acquisition (DDA) mode, using a Top10 method. MS1 […]\nmaximum injection time was set to 60msec. MS2 resolution was set to 15,000, quadrupole isolation 1.7 m/z, AGC of 1e5, dynamic exclusion of 45 sec and maximum injection time of 60 […]\nAnalysis was done using MaxQuant 1.6.3.4. The sequence of BTK was used for the analysis. The digestion enzyme was set to Trypsin with a maximum number of missed cleavages of 0.\nCarbamidomethyl and the modification by the molecule were included as variable modifications on cysteine. The “Re-quantify” option was enabled. Contaminants were included. Peptides were searched with a minimum peptide length of 7 and a maximum peptide mass of 4,500 Da. “Second peptides” were enabled and “Dependent peptides” were disabled. The option “Match between runs” was enabled with a Match time window of 0.7 min and an alignment window of 20 min. An FDR of 0.01 was used for Protein FDR, PSM FDR and XPSM FDR. The triplicate measured for each compound (or for DMSO-treated protein) was analyzed separately.\nFollowing MaxQuant analysis, only fully cleaved peptides were quantified and cysteine-containing peptides that were not modified by either iodoacetamide or compound were ignored.\nThe intensity for each peptide was calculated as the average of the three triplicates. If the intensity was zero for one of the replicates the peptide was ignored. The intensities for the non-cysteine containing peptides were averaged for each data set and used to normalize the intensity of cysteine-containing peptides. Estimation of the extent of labeling of cysteine-containing peptides in the sequence was done by comparing the intensity of carbamidomethyl-modified peptides between the DMSO and molecule-treated samples. MS/MS spectra for the carbamidomethyl-modified and molecule modified peptides were extracted using Skyline. […]\nThe obtained",
  "data": [
    {"molecule": "C#CCCNC(=O)C(=C)CN1CCC[C@@H](n2nc(-c3ccc(Oc4ccccc4)cc3)c3c(N)ncnc32)C1", "note": "[1b]", "values": [
      {"measurement": "site of modification on BTK", "setting": "LC/MS/MS of tryptic peptides", "value": "Cys481"},
      {"measurement": "1b/DMSO ratio after correction", "setting": "iodoacetamide labeled peptide 457-466 LVQLYGVCTK", "value": 0.891},
      {"measurement": "1b/DMSO ratio after correction", "setting": "iodoacetamide labeled peptide 467-487 QRPIFIITEYMANGCLLNYLR", "value": 0.092},
      {"measurement": "1b/DMSO ratio after correction", "setting": "iodoacetamide labeled peptide 493-503 FQTQQLLEMCK", "value": 0.469},
      {"measurement": "1b/DMSO ratio after correction", "setting": "iodoacetamide labeled peptide 504-515 DVCEAMEYLESK", "value": 0.413},
      {"measurement": "1b/DMSO ratio after correction", "setting": "iodoacetamide labeled peptide 526-536 NCLVNDQGVVK", "value": 0.724},
      {"measurement": "1b/DMSO ratio after correction", "setting": "iodoacetamide labeled peptide 626-637 VYTIMYSCWHEK", "value": 0.735}
    ]}
  ]
}
